Data reported in ChEMBL document CHEMBL1121773, “Interaction of aromatic dyes with the coenzyme A binding site of choline acetyltransferase” (J Med Chem, 1981).

Test system: Choline O-acetyltransferase (squid)
Assay: Compound was tested for inhibition of choline acetyltransferase isolated from squid head ganglia; No inhibition at limit of solubility (4.4*10e-3 M)

- Ki: No inhibition at limit of solubility
SMILES: O=S(=O)(O)c1ccc2ccccc2c1Nc1ccccc1
